Assay results: US20190374533A1, “COMPOUNDS AND METHODS FOR INHIBITING NHE-MEDIATED ANTIPORT IN THE TREATMENT OF DISORDERS ASSOCIATED WITH FLUID RETENTION OR SALT OVERLOAD AND GASTROINTESTINAL TRACT DISORDERS” (Ardelyx, Inc., priority 2008, published 2019)
Read-outs that look alike come from different tables or passages of the source. Blank lines part the entries; values can stand above or below the compound they belong to.

Legend:
NHE-1 [1] = target: NHE-1 (Homo sapiens, UniProt P19634); test: Inhibition of NHE-1, literature data (Table 1), species not marked; type: cell-based; settings: selectivity NHE-1 over NHE-3, from Table 1
NHE-1 (Homo sapiens, UniProt P19634), sequence (P19634 whole entry, species assumed, canonical isoform): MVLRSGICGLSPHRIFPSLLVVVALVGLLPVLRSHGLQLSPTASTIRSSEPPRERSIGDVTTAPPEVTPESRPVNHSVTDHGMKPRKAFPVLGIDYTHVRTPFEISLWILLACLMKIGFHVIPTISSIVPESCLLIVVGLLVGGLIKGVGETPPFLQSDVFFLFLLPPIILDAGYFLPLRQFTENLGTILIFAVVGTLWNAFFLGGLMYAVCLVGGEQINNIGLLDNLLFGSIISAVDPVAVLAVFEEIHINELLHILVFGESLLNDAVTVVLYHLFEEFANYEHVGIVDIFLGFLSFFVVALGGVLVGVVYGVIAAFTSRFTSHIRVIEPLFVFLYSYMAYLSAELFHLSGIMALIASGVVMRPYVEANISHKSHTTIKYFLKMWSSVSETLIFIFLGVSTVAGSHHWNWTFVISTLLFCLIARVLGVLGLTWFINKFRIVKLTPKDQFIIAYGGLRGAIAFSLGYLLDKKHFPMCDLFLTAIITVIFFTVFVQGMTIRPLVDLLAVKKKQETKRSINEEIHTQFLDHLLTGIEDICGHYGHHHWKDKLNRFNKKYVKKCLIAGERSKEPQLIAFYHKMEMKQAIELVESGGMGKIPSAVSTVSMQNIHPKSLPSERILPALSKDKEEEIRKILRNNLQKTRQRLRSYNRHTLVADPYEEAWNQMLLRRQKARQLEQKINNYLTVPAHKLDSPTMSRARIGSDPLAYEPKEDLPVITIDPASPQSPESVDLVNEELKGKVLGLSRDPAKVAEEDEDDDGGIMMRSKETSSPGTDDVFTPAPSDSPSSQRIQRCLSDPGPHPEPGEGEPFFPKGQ
Description: Shown below are examples of various NHE inhibiting small molecules and their selectivity across the NHE-1, -2 and -3 isoforms. (See, e.g., B. Masereel et al., An Overview of Inhibitors of Na+/H+ Exchanger, European J. of Med. Chem., 38, pp. 547-554 (2003), the entire contents of which is incorporated by reference here for all relevant and consistent purposes). […] It is thus possible to engineer NHE-3 selectivity into a chemical series optim/zed for potency against another antiporter isoform; that is, the inhibitor classes exemplified in the art may be suitably modified for activity and selectivity against NHE-3 (or alternatively NHE-2 and/or NHE-8), as well as being modified to be rendered substantially impermeable or substantially systemically non-bioavailable.

NHE-2 = target: T1, NHE-2 (Rattus norvegicus, UniProt P48763); settings: * = from rat; read-out: IC50 or Ki, NHE-2; cited from earlier work
T1 sequence (P48763 1-813): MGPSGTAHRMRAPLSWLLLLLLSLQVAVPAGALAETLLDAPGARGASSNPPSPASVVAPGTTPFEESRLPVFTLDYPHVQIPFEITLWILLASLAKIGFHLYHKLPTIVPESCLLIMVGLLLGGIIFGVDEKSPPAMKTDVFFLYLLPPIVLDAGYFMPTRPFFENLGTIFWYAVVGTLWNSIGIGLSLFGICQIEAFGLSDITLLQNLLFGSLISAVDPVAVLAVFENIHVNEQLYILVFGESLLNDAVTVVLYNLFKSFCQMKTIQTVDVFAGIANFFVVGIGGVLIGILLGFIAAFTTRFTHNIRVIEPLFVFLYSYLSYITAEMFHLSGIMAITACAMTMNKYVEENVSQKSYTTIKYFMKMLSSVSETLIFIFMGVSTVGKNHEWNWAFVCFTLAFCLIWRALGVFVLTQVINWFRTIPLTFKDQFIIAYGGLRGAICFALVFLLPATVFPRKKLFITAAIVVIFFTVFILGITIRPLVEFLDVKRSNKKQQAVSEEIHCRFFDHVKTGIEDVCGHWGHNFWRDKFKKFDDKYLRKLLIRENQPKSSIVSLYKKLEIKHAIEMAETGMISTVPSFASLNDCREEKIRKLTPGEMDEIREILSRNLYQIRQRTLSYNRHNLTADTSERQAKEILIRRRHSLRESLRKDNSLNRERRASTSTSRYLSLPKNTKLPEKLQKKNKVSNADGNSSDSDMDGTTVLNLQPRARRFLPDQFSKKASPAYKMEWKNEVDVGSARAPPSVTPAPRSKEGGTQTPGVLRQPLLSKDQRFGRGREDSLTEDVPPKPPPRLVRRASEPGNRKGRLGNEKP

rat NHE-3 = target: T2, rat NHE-3 (Rattus norvegicus, UniProt P26433); test: Cell-based assay of NHE-3 activity (Pharmacological Test Example 1); settings: OK cells expressing rat NHE-3; 0-30 uM test compound, 5 uM EIPA; read-out: rat NHE-3 Average pIC50 (converted)
T2 construct: expressed in transfected cells; host or cells: Opossum kidney (OK) cells (ATCC), electroporated
T2 sequence (P26433 29-831): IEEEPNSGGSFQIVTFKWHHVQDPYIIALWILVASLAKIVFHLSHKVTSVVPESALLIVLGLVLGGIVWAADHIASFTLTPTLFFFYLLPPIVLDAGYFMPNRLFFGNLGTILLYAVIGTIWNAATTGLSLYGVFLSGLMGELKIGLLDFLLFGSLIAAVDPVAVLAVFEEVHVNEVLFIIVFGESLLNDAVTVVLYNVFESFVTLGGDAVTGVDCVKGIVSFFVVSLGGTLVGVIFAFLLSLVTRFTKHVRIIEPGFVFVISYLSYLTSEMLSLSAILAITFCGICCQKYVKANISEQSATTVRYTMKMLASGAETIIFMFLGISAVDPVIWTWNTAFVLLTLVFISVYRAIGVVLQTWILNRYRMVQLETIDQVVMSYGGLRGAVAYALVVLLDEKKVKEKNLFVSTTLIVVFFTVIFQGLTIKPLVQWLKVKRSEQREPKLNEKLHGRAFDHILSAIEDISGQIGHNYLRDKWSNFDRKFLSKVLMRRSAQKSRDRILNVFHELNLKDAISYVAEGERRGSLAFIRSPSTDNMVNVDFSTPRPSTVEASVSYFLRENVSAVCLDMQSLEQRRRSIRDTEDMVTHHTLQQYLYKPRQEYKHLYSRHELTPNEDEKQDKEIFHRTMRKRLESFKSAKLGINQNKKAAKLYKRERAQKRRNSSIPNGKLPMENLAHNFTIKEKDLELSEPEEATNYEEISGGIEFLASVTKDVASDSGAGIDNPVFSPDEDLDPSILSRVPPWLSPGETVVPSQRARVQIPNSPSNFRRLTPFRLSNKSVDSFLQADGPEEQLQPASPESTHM
How it was run: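 Na+-dependent H+ exchange tracked with the pH-sensitive dye BCECF in opossum kidney cells transiently expressing rat NHE-3. Intracellular acidification by NH4Cl prepulse, then 10 min in ammonium- and Na+-free HEPES, pH 7.4, room temperature. Initial rates averaged over 3-6 replicates give pIC50.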

[2] = Determination of compound Cmax and AUC; type: in vivo; settings: rat; Sprague-Dawley rats, oral gavage, serum 0.5-4 h; actual oral dose (mg/kg) given
How it was run: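 Sprague-Dawley rats dosed orally by gavage at 2.5 mg/kg; serum sampled at 0.5, 1, 2 and 4 h. Acetonitrile protein precipitation, then LC/MS/MS quantitation against a standard curve.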

fecal water content = test: Pharmacodynamic model: effect of test compounds on fecal water content; type: in vivo, rat; settings: female Sprague Dawley rats, 3 mg/kg oral, feces collected 16 hrs; for % Fecal water: mean of 6
Procedure: Normal female Sprague Dawlev rats (Charles-River laboratories international, Hollister, Calif.), 7-8 weeks old with body weight 175-200 g were acclimated for at least 3 days before proceeding to experiments. The animals were provided food (Harlan Teklad 2018c) and water ad lib, through the experiment. Animals were randomly grouped with 6 rats per group.
The experiments were initiated by orally dosing test compounds at 3 mg/kg in volume of 10 ml/kg. Rats from control group were gavaged with the same volume of vehicle (water). After dosing, rats were placed in metabolic cages for 16 hrs (overnight). Food and water consumption were monitored. After sixteen hours, feces and urine were collected. The percent of fecal water was measured by weighing fecal samples before and after drying.
Representative data of % fecal water content are shown in Table 12 (data are expressed as means, with 6 animals per data point). The differences between control and treated groups were evaluated by one way ANOVA with Dunnett post tests. Results are significant if p<0.05.

urinary sodium levels = test: Pharmacodynamic model: effect of test compounds on urinary sodium levels; type: in vivo, rat; settings: rats, several oral dose levels, corrected for sodium intake (FIGS. 3A and 3B)
Procedure: It is anticipated that the reduction of absorption of sodium from the intestine will be reflected in reduced levels of sodium in the urine. To test this, the protocols in Example 13 were repeated, but urine was collected in addition to feces. Urine sodium levels were analyzed by ion chromatography (IC), and the amound of sodium excreted in the urine was corrected for variations in sodium intake by measuring food consumption.

NHE-1 [3] = target: NHE-1 (Rattus norvegicus, UniProt P26431); settings: * = from rat; read-out: IC50 or Ki, NHE-1; cited from earlier work
NHE-1 (Rattus norvegicus, UniProt P26431), sequence (P26431 whole entry): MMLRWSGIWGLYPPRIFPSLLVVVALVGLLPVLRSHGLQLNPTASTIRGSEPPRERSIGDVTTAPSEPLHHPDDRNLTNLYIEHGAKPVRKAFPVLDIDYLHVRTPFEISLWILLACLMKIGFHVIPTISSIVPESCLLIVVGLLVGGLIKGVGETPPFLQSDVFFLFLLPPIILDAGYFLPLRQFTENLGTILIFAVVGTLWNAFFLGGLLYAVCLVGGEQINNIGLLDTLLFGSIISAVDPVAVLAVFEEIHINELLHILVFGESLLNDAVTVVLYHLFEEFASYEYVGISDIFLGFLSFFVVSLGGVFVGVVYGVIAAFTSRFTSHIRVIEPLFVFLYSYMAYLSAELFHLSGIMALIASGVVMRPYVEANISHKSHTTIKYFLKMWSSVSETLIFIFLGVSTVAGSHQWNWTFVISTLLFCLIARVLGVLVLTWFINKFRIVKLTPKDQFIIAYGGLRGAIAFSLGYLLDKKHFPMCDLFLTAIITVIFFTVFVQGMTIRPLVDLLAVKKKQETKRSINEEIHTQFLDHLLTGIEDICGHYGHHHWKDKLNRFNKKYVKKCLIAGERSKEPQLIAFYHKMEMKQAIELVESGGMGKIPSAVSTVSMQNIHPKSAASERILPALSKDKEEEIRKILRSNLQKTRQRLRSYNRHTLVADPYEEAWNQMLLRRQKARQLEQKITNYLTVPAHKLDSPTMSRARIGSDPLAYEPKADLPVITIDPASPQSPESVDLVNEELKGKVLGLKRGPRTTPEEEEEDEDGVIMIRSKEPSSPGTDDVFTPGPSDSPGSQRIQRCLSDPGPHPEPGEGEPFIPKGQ

NHE-3 = NHE-3 (Rattus norvegicus, UniProt P26433); settings: cited from earlier work
NHE-3, sequence (P26433 29-831): as the sequence (P26433 29-831) above

[4] = tested on: fecal water content, urinary sodium, fecal form; test: Pharmacodynamic model: addition of a fluid absorbing polymer (1% Psyllium) to chow; type: in vivo, rat; settings: rats, chow with 1% Psyllium (FIGS. 5A-5C)
Description: Rats were monitored for fecal water content as in Example 13, with the addition of a second group that were fed chow with the addition of 1% Psyllium to their diet. In addition to fecal water and urinary sodium, fecal form was monitored on a scale of 1-5, where 1 is a normal pellet, 3 indicates soft and unformed pellets, and 5 indicates watery feces.

[5] = tested on: acute stress-induced visceral hypersensitivity; test: Effect on acute stress-induced visceral hypersensitivity (colorectal distension); type: in vivo, rat; settings: female Wistar rats, partial restraint stress, 10 mg/kg oral, at 45 and 60 mm Hg, p<0.05 (FIG. 6)
Procedure: Female Wistar rats weighing 220-250 g were prepared for electromyography. The animals were anaesthetized, and three pairs of nichrome wire electrodes were implanted bilaterally in the striated muscles at 3 cm laterally from the midline. The free ends of electrodes were exteriorised on the back of the neck and protected by a glass tube attached to the skin. Electromyographic recordings (EMG) were begun 5 days after surgery. The electrical activity of the abdominal striated muscles were recorded with an electromyograph machine (Mini VIII; Alvar, Paris, France) using a short time constant (0.03 sec.) to remove low-frequency signals (<3 Hz).
Partial restraint stress (PRS), a relatively mild stress, was performed as follows. Briefly, animals were lightly anaesthetized with ethyl-ether, and their […], upper forelimbs and thoracic trunk were wrapped in a confining harness of paper tape to restrict, but not prevent their body movements and placed in their home cage for 2 hours. Control sham-stress animals were anaesthetized but not wrapped. […]
Colorectal distension (CRD) was accomplished as follows: rats were placed in a plastic tunnel, where they were not allowed to move or escape daily during 3 consecutive days (3 h/day) before any CRD. […] For each parameter studied (the number of abdominal contractions for each 5-min period during rectal distension) data is expressed as mean±SEM. […]

NHE-5 = target: T3, NHE-5 (Homo sapiens, UniProt Q14940); settings: read-out: IC50 or Ki, NHE-5; cited from earlier work
T3 sequence (Q14940 1-896): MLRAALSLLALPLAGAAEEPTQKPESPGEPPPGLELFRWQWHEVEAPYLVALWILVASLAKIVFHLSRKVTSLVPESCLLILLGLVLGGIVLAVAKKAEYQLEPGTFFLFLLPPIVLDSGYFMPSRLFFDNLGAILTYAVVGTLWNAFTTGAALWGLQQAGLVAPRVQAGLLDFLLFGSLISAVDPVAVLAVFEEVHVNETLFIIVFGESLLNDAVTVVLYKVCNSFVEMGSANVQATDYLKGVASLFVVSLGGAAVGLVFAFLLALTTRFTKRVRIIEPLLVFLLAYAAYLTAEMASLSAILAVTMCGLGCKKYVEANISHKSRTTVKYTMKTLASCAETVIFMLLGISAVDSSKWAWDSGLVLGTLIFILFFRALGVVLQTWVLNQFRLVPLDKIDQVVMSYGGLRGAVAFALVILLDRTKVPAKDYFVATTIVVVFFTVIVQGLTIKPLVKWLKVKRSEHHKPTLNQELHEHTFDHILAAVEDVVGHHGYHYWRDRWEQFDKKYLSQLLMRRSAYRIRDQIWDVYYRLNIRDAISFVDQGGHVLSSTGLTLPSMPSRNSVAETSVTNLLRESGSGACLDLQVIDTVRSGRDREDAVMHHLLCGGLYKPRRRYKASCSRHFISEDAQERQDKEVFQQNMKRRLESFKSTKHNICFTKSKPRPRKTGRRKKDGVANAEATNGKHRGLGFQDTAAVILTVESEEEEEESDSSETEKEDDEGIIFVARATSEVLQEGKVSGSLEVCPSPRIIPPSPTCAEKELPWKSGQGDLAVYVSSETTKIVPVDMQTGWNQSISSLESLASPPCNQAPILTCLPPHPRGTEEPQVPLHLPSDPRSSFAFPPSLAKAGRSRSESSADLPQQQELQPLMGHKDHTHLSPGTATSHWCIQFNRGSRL

[6] = * = from rat, read-out: IC50 or Ki, NHE-3

fold more active against NHE-1 than NHE-3 (NHE-1 [1]): over 500 fold
Structure (SMILES): C/C(=C\c1cccc(/C=C(\C)C(=O)NC(=N)N)c1)C(=O)N=C(N)N [Example S-2120, S-2120]

Structure (SMILES): CCN(c1nc(N)c(C(=O)NC(=N)N)nc1Cl)C(C)C [EIPA, ethyl isopropyl amiloride]
IC50 (NHE-2): 80 nM

IC50 (rat NHE-3): < 100 nM | AUC [2]: < 15 ng·h/mL | Cmax [2]: < 7 ng/mL
Structure (SMILES): CN1Cc2c(Cl)cc(Cl)cc2[C@H](c2cccc(S(=O)(=O)NCCOCCOCCOCCNC(=O)NCCCCNC(=O)NCCOCCOCCOCCNS(=O)(=O)c3cccc([C@@H]4CN(C)Cc5c(Cl)cc(Cl)cc54)c3)c2)C1 (single isomer, unassigned) [Example 244, (S or R)—N,N′-(13,20-dioxo-3,6,9,24,27,30-hexaoxa-12,14,19,21-tetraazadotriacontane-1,32-diyl)bis(3-((S or R)-6,8-dichloro-2-methyl-1,2,3,4-tetrahydroisoquinolin-4-yl)benzenesulfonamide)]
% Fecal water (% of control) (fecal water content): 118% of control | % Fecal water (fecal water content): 61% | amount of sodium excreted in the urine (urinary sodium levels): diminishes significantly and dose dependently

Structure (SMILES): N=C(N)NC(=O)c1nc(Cl)c(N)nc1N [Amiloride, amiloride]
IC50 (NHE-1 [3]): 1000 to 1600 nM | IC50 (NHE-3; [6]): > 100 µM | IC50 (NHE-3; as restated in the text on Table 1, read-out: NHE-3 IC50): > 100 µM

Structure (SMILES): CN1Cc2c(Cl)cc(Cl)cc2C(c2cccc(S(=O)(=O)NCCOCCOCCOCCNC(=O)C(O)C(O)C(=O)NCCOCCOCCOCCNS(=O)(=O)c3cccc(C4CN(C)Cc5c(Cl)cc(Cl)cc54)c3)c2)C1 (single isomer, unassigned) [Example 224, N1,N4-bis(2-(2-(2-(2-(3-((S or R)-6,8-dichloro-2-methyl-1,2,3,4-tetrahydroisoquinolin-4-yl)phenylsulfonamido)ethoxy)ethoxy)ethoxy)ethyl)-2,3-dihydroxysuccinamide]
% Fecal water (% of control) (fecal water content): 125% of control | % Fecal water (fecal water content): 65% | ability to increase fecal water content or decrease urinary sodium with Psyllium in the diet [4]: without impacting the ability | visceral hypersensitivity to distension (abdominal contractions) [5]: reduces visceral hypersensitivity to distension

fold more active against NHE-1 than NHE-3 (NHE-1 [1]): reversed
Structure (SMILES): C/C(=C\c1cc(C)ccc1/C=C(\C)C(=O)NC(=N)N)C(=O)N=C(N)N [Example S-3226, S-3226]

Structure (SMILES): N=C(N)NC(=O)c1nc(Cl)c(N2CCCCCC2)nc1N [HMA]
IC50 (NHE-1 [3]): 13 nM | IC50 (NHE-3; [6]): 2.4 µM | IC50 (NHE-5): 370 nM
